For one assay, the target named is T1, FLK-1 receptor (Mus musculus, UniProt P35918).
T1 construct: expressed in transfected cells; host or cells: NIH3T3 C7#3
Put plainly: FLK-1 ELISA (kinase activity of the FLK-1 receptor in FLK-1/NIH3T3 cells, VEGF stimulated). The format is cell-based. The essentials: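 FLK-1-expressing NIH3T3 C7#3 cells, starved overnight in 0.1% FBS medium, were treated with compounds at a 1:200 final dilution (0.5% DMSO) for 2 h at 37 °C, with VEGF stimulation. FLK-1 kinase activity was read by ELISA on anti-rabbit IgG plates using affinity-purified anti-FLK-1 antiserum.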

Another assay concerns MET. Briefly: MET biochemical kinase assay. On the set-up: species or system human; concentration or dose not given beside the values. The essentials:
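In this format, tyrosine phosphorylation of plate-captured human MET is followed in vitro after compound addition in ATP/divalent-cation buffer, detected by anti-phosphotyrosine-HRP with TMB substrate.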

Another assay deals with PDGF-R (Homo sapiens, UniProt P09619). Briefly: PDGF-R ELISA. It counts as cell-based. The source says:
A PDGF-R ELISA is described in International Patent Publication No. WO 96/40116, published December 19, 1996 by Tang et al.

Sequence of PDGF-R (P09619 33-1106, species assumed): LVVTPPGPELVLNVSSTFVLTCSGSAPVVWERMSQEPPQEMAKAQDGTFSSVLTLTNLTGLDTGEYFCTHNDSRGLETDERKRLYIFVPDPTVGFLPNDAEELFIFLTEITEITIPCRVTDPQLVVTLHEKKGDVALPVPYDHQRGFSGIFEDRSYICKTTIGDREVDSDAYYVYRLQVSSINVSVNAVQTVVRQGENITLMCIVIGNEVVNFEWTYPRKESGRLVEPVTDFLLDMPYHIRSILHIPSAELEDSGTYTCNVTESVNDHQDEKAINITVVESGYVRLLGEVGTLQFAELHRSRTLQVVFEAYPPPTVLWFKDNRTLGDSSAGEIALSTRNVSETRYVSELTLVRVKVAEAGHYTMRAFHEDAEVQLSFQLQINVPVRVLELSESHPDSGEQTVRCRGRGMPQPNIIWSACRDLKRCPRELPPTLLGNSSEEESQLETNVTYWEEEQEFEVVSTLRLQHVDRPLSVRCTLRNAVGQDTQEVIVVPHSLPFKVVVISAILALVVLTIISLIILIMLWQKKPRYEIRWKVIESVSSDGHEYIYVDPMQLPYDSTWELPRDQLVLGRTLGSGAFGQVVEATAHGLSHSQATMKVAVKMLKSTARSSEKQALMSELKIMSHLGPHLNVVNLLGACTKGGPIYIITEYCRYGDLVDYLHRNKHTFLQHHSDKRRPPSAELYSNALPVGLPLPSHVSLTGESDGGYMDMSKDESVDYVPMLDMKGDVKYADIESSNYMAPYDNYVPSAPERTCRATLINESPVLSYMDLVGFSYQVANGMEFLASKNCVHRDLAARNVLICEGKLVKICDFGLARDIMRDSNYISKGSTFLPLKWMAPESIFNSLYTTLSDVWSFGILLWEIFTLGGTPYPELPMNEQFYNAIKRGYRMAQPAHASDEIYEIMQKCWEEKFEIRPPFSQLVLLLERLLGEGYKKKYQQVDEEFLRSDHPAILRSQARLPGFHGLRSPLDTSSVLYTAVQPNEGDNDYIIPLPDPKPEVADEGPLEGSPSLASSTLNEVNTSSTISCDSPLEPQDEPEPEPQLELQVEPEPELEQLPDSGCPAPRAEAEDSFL
T1 sequence (P35918 20-1345): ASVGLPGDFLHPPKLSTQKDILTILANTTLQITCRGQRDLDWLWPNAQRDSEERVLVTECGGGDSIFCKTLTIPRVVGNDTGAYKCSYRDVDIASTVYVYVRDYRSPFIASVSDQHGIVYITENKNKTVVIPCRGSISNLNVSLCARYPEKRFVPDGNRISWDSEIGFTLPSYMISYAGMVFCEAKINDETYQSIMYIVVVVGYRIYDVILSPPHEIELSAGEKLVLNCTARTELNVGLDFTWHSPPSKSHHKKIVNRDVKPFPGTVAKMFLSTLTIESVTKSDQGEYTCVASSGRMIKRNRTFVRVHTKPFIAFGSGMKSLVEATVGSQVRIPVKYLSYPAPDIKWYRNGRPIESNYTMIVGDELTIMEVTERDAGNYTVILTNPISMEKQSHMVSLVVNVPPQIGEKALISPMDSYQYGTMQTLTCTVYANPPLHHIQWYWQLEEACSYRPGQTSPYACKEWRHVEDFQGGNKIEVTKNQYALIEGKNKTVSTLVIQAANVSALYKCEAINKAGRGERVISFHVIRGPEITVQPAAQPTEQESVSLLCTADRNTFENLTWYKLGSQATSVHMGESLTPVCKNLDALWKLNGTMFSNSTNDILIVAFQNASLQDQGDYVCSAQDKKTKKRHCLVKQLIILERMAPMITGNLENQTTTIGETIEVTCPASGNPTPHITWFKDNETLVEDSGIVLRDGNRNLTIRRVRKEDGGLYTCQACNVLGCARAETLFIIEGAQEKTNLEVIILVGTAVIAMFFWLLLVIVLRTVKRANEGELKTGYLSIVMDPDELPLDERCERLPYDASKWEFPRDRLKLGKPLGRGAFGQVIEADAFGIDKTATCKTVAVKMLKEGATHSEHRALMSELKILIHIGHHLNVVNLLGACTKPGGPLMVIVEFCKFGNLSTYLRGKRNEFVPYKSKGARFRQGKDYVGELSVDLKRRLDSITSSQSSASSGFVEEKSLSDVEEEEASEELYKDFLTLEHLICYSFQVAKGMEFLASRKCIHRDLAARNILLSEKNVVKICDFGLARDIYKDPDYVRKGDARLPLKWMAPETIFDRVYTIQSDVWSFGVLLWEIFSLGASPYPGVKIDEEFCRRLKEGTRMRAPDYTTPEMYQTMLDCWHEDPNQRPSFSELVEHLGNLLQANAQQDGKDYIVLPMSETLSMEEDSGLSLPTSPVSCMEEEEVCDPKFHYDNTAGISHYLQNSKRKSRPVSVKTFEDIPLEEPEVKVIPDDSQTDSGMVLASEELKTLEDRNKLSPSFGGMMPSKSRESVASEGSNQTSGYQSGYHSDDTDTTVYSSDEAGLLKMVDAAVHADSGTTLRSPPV

Turning to `CNS(=O)(=O)c1ccc2c(c1)C(=Cc1cc(OC)ccc1OC)C(=O)N2` [10728/D02], the “Fik Kinase %Inhibition” value on FLK-1 receptor is -0.3%. Moreover, the “Met Kinase % Inhibition” value in the assay on MET was determined as 21.4%. In addition, the “PDGF Kinase %Inhibition” value on PDGF-R is recorded as 9.8%.
The matching figures for `COc1cccc(C=C2C(=O)Nc3ccc(S(=O)(=O)N4CCOCC4)cc32)c1OC` [10727/F11]: 17.3%, -3.0% and 18.1%.
The matching figures for `COc1cc(C=C2C(=O)Nc3ccc(I)cc32)cc2c1OCO2` [10728/B11]: -1.0%, 80.3% and -12.4%.
The matching figures for `O=C1Nc2ccc(S(=O)(=O)N3CCOCC3)cc2C1=Cc1cc(O)ccc1O` [10727/F10]: 15.9%, 93.4% and 9.4%.
On to `O=C1Nc2ccc(I)cc2C1=Cc1cccc(C(F)(F)F)c1F` [10728/B07], for which the “Fik Kinase %Inhibition” value on FLK-1 receptor came to 31.4%. Also, the “Met Kinase % Inhibition” value in the assay with MET is given as 82.2%. Besides, the “PDGF Kinase %Inhibition” value on PDGF-R stood at 20.9%.
As to `O=C1Nc2c(Br)cc(Br)cc2C1=Cc1ccc(Cl)c([N+](=O)[O-])c1` [10718/A08], the “Fik Kinase %Inhibition” value at FLK-1 receptor was 3.2%. Also, the “Met Kinase % Inhibition” value in the assay on MET is on record as 36.8%.
Consider `O=C1Nc2ccc(S(=O)(=O)N3CCOCC3)cc2C1=Cc1cc2c(cc1Cl)OCO2` [10727/F06], for which the “Fik Kinase %Inhibition” value on FLK-1 receptor worked out at 14.5%. Also, the “Met Kinase % Inhibition” value in the assay with MET is on record as 37.7%. For the same compound, the “PDGF Kinase %Inhibition” value at PDGF-R amounted to 8.6%.
Taken in the same sequence, the figures for `Cc1c(Br)ccc2c1C(=Cc1ccc3c(c1)Cc1ccccc1-3)C(=O)N2` [10728/C06] were 8.4%, 22.9% and 2.7%.
Taken in the same sequence, the figures for `CCc1cc(CC)c(C=C2C(=O)Nc3ccc(S(=O)(=O)Nc4ccc(C(F)(F)F)cc4)cc32)[nH]1` [10727/E03] were 11.1%, 28.8% and 5.7%.
Turning to `O=C1Nc2c(Br)cc(Br)cc2C1=Cc1cccc(C(F)(F)F)c1F` [10728/A07], the “Fik Kinase %Inhibition” value at FLK-1 receptor is given as -21.6%. The “Met Kinase % Inhibition” value with MET came out at 28.5%. Moreover, the “PDGF Kinase %Inhibition” value at PDGF-R is reported as 31.1%.
In the case of `COc1cc(C=C2C(=O)Nc3ccc(Br)c(C)c32)cc(OC)c1` [10728/C04], the “Fik Kinase %Inhibition” value at FLK-1 receptor is recorded as -0.0%. Also, the “Met Kinase % Inhibition” value in the assay on MET is given as 33.6%. Further, on PDGF-R, the “PDGF Kinase %Inhibition” value was 27.2%.
The matching figures for `CNS(=O)(=O)c1ccc2c(c1)C(=Cc1cc(OC)cc(OC)c1)C(=O)N2` [10728/D04]: 6.8%, 23.1% and 26.7%.
Taken in the same sequence, the figures for `N#Cc1ccc(C=C2C(=O)Nc3ccc(S(=O)(=O)N4CCOCC4)cc32)cc1` [10727/F09] were -45.2%, 9.3% and 21.7%.
The matching figures for `O=C1Nc2ccc(S(=O)(=O)Nc3ccc(C(F)(F)F)cc3)cc2C1=Cc1coc2ccccc2c1=O` [10727/E07]: 20.1%, 45.2% and 10.1%.
On to `COc1cc(C=C2C(=O)Nc3c(Br)cc(Br)cc32)cc(OC)c1` [10728/A04], for which the “Fik Kinase %Inhibition” value at FLK-1 receptor is recorded as -3.5%. For the same compound, the “Met Kinase % Inhibition” value with MET came to 28.5%. Besides, the “PDGF Kinase %Inhibition” value at PDGF-R came out at 15.6%.
Taken in the same sequence, the figures for `CNS(=O)(=O)c1ccc2c(c1)C(=Cc1cc(Cl)cc(Br)c1O)C(=O)N2` [10727/D04] were 25.9%, 76.0% and 6.4%.
As for `COc1ccc(OC)c(C=C2C(=O)Nc3c(Br)cc(Br)cc32)c1` [10728/A02], the “Fik Kinase %Inhibition” value at FLK-1 receptor is reported as -12.3%. The “Met Kinase % Inhibition” value in the assay on MET stood at 25.6%. Further, at PDGF-R, the “PDGF Kinase %Inhibition” value is given as -7.9%.
The matching figures for `CCc1cc(CC)c(C=C2C(=O)Nc3ccc(CCCl)cc32)[nH]1` [10727/G03]: -3.5%, 40.5% and -10.3%.
Taken in the same sequence, the figures for `CCN(CC)c1ccc(C=C2C(=O)Nc3ccc(CCCl)cc32)cc1` [10727/G02] were 7.1%, 81.5% and -20.5%.
Consider `COc1cc(N(C)C)ccc1C=C1C(=O)Nc2c(Br)cc(Br)cc21` [10728/A05], for which the “Fik Kinase %Inhibition” value at FLK-1 receptor is on record as -10.8%. Also, the “Met Kinase % Inhibition” value with MET worked out at 31.8%. Further, the “PDGF Kinase %Inhibition” value on PDGF-R amounted to 4.5%.
The matching figures for `O=C1Nc2ccc(S(=O)(=O)N3CCOCC3)cc2C1=Cc1coc2ccccc2c1=O` [10727/F07]: 21.4%, 17.9% and 2.1%.
Taken in the same sequence, the figures for `O=C1Nc2ccc(S(=O)(=O)Nc3ccc(C(F)(F)F)cc3)cc2C1=Cc1ccccc1Sc1ccc(Cl)cc1` [10727/E05] were 17.1%, 12.1% and -7.4%.
The matching figures for `O=C1Nc2ccc(S(=O)(=O)Nc3ccc(C(F)(F)F)cc3)cc2C1=Cc1cc(Cl)cc(Br)c1O` [10727/E04]: 46.1%, 98.4% and -7.4%.
`Cc1c(Br)ccc2c1C(=Cc1ccccc1OCC(=O)O)C(=O)N2` [10728/C10]: the “Fik Kinase %Inhibition” value on FLK-1 receptor is reported as 6.1%. Besides, the “Met Kinase % Inhibition” value with MET worked out at 28.7%. Besides, the “PDGF Kinase %Inhibition” value at PDGF-R came to 11.2%.
The matching figures for `O=C1Nc2c(Br)cc(Br)cc2C1=Cc1ccc2c(c1)Cc1ccccc1-2` [10728/A06]: -10.4%, 19.7% and -3.1%.
The matching figures for `O=C(O)COc1ccccc1C=C1C(=O)Nc2ccc(I)cc21` [10728/B10]: 3.9%, 79.3% and 2.7%.
Regarding `COc1cccc(OC)c1C=C1C(=O)Nc2ccc(I)cc21` [10728/B03], the “Fik Kinase %Inhibition” value on FLK-1 receptor is given as -1.3%. For the same compound, the “Met Kinase % Inhibition” value in the assay on MET is recorded as 74.4%. The “PDGF Kinase %Inhibition” value on PDGF-R is given as 10.3%.
The matching figures for `N#Cc1cccc(C=C2C(=O)Nc3ccc(S(=O)(=O)N4CCOCC4)cc32)c1` [10727/F08]: 12.5%, 36.9% and 10.1%.
The matching figures for `O=C1Nc2ccc(I)cc2C1=Cc1cc(C(F)(F)F)ccc1F` [10728/B08]: 14.8%, 77.0% and -6.6%.
For the compound `COc1cc(N(C)C)ccc1C=C1C(=O)Nc2ccc(Br)c(C)c21` [10728/C05], at FLK-1 receptor, the “Fik Kinase %Inhibition” value is on record as -21.7%. In the assay with MET, the “Met Kinase % Inhibition” value turned out to be 33.7%. Besides, the “PDGF Kinase %Inhibition” value at PDGF-R amounted to 23.2%.
The matching figures for `CCN(CC)c1ccc(C=C2C(=O)Nc3ccc(S(=O)(=O)N4CCOCC4)cc32)cc1` [10727/F02]: 15.9%, 52.0% and 11.5%.
For the compound `O=C1Nc2ccc(S(=O)(=O)N3CCOCC3)cc2C1=Cc1ccccc1Sc1ccc(Cl)cc1` [10727/F05], the “Fik Kinase %Inhibition” value at FLK-1 receptor stood at 21.8%. For the same compound, the “Met Kinase % Inhibition” value in the assay on MET amounted to 6.0%. For the same compound, at PDGF-R, the “PDGF Kinase %Inhibition” value was -3.7%.
Taken in the same sequence, the figures for `CNS(=O)(=O)c1ccc2c(c1)C(=Cc1ccccc1Sc1ccc(Cl)cc1)C(=O)N2` [10727/D05] were 8.5%, 39.9% and -0.1%.
Regarding `COc1cc(Br)c(O)c(C=C2C(=O)Nc3c(Br)cc(Br)cc32)c1` [10718/A03], at FLK-1 receptor, the “Fik Kinase %Inhibition” value turned out to be 7.6%. Further, the “Met Kinase % Inhibition” value with MET is on record as 92.7%.
`COc1cc(C=C2C(=O)Nc3ccc(Br)c(C)c32)cc2c1OCO2` [10728/C11]: the “Fik Kinase %Inhibition” value on FLK-1 receptor was -10.1%. In addition, the “Met Kinase % Inhibition” value in the assay with MET amounted to 45.2%. At PDGF-R, the “PDGF Kinase %Inhibition” value came to 8.5%.
Consider `CCOC(=O)c1c(C)[nH]c(C=C2C(=O)Nc3c(Br)cc(Br)cc32)c1C` [10718/A02], for which the “Fik Kinase %Inhibition” value at FLK-1 receptor is 3.0%. The “Met Kinase % Inhibition” value in the assay on MET was found to be 54.6%.
The matching figures for `Cc1[nH]c(C=C2C(=O)Nc3ccc(CCCl)cc32)c(Br)c1Br` [10717/G11]: 16.4% and 73.8%.
The matching figures for `COC(=O)c1[nH]c(C)c(C=C2C(=O)Nc3c(Br)cc(Br)cc32)c1C(=O)OC` [10718/A07]: 16.2% and 58.6%.
Taken in the same sequence, the figures for `O=C1Nc2c(Br)cc(Br)cc2C1=Cc1ccc2ccccc2c1O` [10718/A04] were 6.9% and 81.7%.
As to `CCOC(=O)CCc1c(C(=O)OCC)[nH]c(C=C2C(=O)Nc3c(Br)cc(Br)cc32)c1CC(=O)OCC` [10718/A05], on FLK-1 receptor, the “Fik Kinase %Inhibition” value is on record as 3.2%. For the same compound, the “Met Kinase % Inhibition” value in the assay with MET worked out at 36.1%.
The matching figures for `CCOC(=O)c1cc(C=C2C(=O)Nc3c(Br)cc(Br)cc32)oc1C` [10718/A06]: 7.8% and 61.3%.

For the origin of these results see patent EP1247803A2, “Indolinone compounds suitable for modulation of protein kinases” (Sugen, Inc., priority 1996, dated 1998).
